# Biological target: T1, human PAH with the R408W mutation (Homo sapiens, UniProt P00439, R408W)
# T1 construct: expressed in transfected cells
# T1 sequence (P00439 1-452 R408W): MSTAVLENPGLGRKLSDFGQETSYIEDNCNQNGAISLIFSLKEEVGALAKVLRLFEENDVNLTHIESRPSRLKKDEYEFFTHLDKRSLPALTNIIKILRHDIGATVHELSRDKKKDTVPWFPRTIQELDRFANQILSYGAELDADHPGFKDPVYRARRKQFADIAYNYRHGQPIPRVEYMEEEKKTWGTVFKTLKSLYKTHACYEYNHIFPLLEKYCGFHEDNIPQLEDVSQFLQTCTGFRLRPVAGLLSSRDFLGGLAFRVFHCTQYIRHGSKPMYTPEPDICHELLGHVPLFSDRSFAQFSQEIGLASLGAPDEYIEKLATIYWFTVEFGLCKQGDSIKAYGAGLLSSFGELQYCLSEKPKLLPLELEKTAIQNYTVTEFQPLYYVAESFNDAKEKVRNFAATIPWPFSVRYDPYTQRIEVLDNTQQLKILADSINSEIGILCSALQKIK
# Assay: Cell Based Phenylalanine Flux Assay;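 also: after compound treatment, cells received sepiapterin plus isotope-labelled Phenylalanine for 4 hours, then labelled Tyrosine in the medium was quantified, 10-point 2-fold dilution series run in duplicate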
# Conditions: A375 cells expressing human PAH R408W; 24 hrs compound incubation; 13C-Tyrosine by LC-MS; average where tested multiple times; read-out: AC50
row,SMILES,AC50 [µM]
1,"Cc1cccn2nc([C@@H]3c4nc[nH]c4CCN3C(=O)[C@@H]3CC3(F)F)cc12 [Example 2028, ((S)-2,2-difluorocyclopropyl)((S)-4-(4-methylpyrazolo[1,5-a]pyridin-2-yl)-1,4,6,7-tetrahydro-5H-imidazo[4,5-c]pyridin-5-yl)methanone]",< 0.5
2,"Cc1cccn2nc([C@H]3c4nc[nH]c4CCN3C(=O)[C@@H]3CC3(F)F)cc12 [Example 2029, ((S)-2,2-difluorocyclopropyl)((R)-4-(4-methylpyrazolo[1,5-a]pyridin-2-yl)-1,4,6,7-tetrahydro-5H-imidazo[4,5-c]pyridin-5-yl)methanone]",> 5
3,"O=C([C@@H]1CC1(F)F)N1CCc2[nH]cnc2[C@@H]1c1cc2c(F)cccn2n1 [Example 2031, ((S)-2,2-difluorocyclopropyl)((R)-4-(4-fluoropyrazolo[1,5-a]pyridin-2-yl)-1,4,6,7-tetrahydro-5H-imidazo[4,5-c]pyridin-5-yl)methanone]",1 to 5
4,"O=C(c1cnc(-c2ccccn2)o1)N1CCc2[nH]cnc2[C@H]1c1cc2c(F)cccn2n1 [Example 2032, (S)-(4-(4-fluoropyrazolo[1,5-a]pyridin-2-yl)-1,4,6,7-tetrahydro-5H-imidazo[4,5-c]pyridin-5-yl)(2-(pyridin-2-yl)oxazol-5-yl)methanone]",< 0.5
5,"O=C(c1cnc(-c2ccccn2)o1)N1CCc2[nH]cnc2[C@@H]1c1cc2c(F)cccn2n1 [Example 2033, (R)-(4-(4-fluoropyrazolo[1,5-a]pyridin-2-yl)-1,4,6,7-tetrahydro-5H-imidazo[4,5-c]pyridin-5-yl)(2-(pyridin-2-yl)oxazol-5-yl)methanone]",> 5
6,"O=C(c1cnc(-c2ccccn2)o1)N1CCc2[nH]cnc2[C@H]1c1cc2c(C(F)F)cccn2n1 [Example 2034, (S)-(4-(4-(difluoromethyl)pyrazolo[1,5-a]pyridin-2-yl)-1,4,6,7-tetrahydro-5H-imidazo[4,5-c]pyridin-5-yl)(2-(pyridin-2-yl)oxazol-5-yl)methanone]",0.5 to 1
7,"O=C(c1cnc(-c2ccccn2)o1)N1CCc2[nH]cnc2[C@@H]1c1cc2c(C(F)(F)F)cccn2n1 [Example 2037, (R)-(2-(pyridin-2-yl)oxazol-5-yl)(4-(4-(trifluoromethyl)pyrazolo[1,5-a]pyridin-2-yl)-1,4,6,7-tetrahydro-5H-imidazo[4,5-c]pyridin-5-yl)methanone]",> 5
8,"O=C(c1ocnc1C1CC1)N1CCc2[nH]cnc2[C@@H]1c1cc2c(Cl)cccn2n1 [Example 2041, (R)-(4-(4-chloropyrazolo[1,5-a]pyridin-2-yl)-1,4,6,7-tetrahydro-5H-imidazo[4,5-c]pyridin-5-yl)(4-cyclopropyloxazol-5-yl)methanone]",1 to 5
9,"O=C(c1ocnc1C1CC1)N1CCc2[nH]cnc2[C@H]1c1cc2cccc(Cl)n2n1 [Example 2042, (S)-(4-(7-chloropyrazolo[1,5-a]pyridin-2-yl)-1,4,6,7-tetrahydro-5H-imidazo[4,5-c]pyridin-5-yl)(4-cyclopropyloxazol-5-yl)methanone]",0.5 to 1
10,"O=C(c1ocnc1C1CC1)N1CCc2[nH]cnc2[C@@H]1c1cc2cccc(Cl)n2n1 [Example 2043, (R)-(4-(7-chloropyrazolo[1,5-a]pyridin-2-yl)-1,4,6,7-tetrahydro-5H-imidazo[4,5-c]pyridin-5-yl)(4-cyclopropyloxazol-5-yl)methanone]",1 to 5
11,"Cn1cc(-c2nnc(C(=O)N3CCc4[nH]cnc4[C@@H]3c3cc4ccccn4n3)s2)cn1 [Example 2044, (R)-(5-(1-methyl-1H-pyrazol-4-yl)-1,3,4-thiadiazol-2-yl)(4-(pyrazolo[1,5-a]pyridin-2-yl)-1,4,6,7-tetrahydro-5H-imidazo[4,5-c]pyridin-5-yl)methanone]",> 5
12,"Cn1cc(-c2nnc(C(=O)N3CCc4[nH]cnc4[C@H]3c3cc4ccccn4n3)s2)cn1 [Example 2045, (S)-(5-(1-methyl-1H-pyrazol-4-yl)-1,3,4-thiadiazol-2-yl)(4-(pyrazolo[1,5-a]pyridin-2-yl)-1,4,6,7-tetrahydro-5H-imidazo[4,5-c]pyridin-5-yl)methanone]",0.5 to 1
13,"Cc1cccn2nc([C@H]3c4nc[nH]c4CCN3C(=O)c3nnc(-c4cnn(C)c4)s3)cc12 [Example 2046, (R)-(5-(1-methyl-1H-pyrazol-4-yl)-1,3,4-thiadiazol-2-yl)(4-(4-methylpyrazolo[1,5-a]pyridin-2-yl)-1,4,6,7-tetrahydro-5H-imidazo[4,5-c]pyridin-5-yl)methanone]",> 5
14,"Cc1cccn2nc([C@@H]3c4nc[nH]c4CCN3C(=O)c3nnc(-c4cnn(C)c4)s3)cc12 [Example 2047, (S)-(5-(1-methyl-1H-pyrazol-4-yl)-1,3,4-thiadiazol-2-yl)(4-(4-methylpyrazolo[1,5-a]pyridin-2-yl)-1,4,6,7-tetrahydro-5H-imidazo[4,5-c]pyridin-5-yl)methanone]",0.5 to 1
15,"O=C(c1nc2ccccc2o1)N1CCc2[nH]cnc2[C@H]1c1cc2ccccn2n1 [Example 2048, (S)-benzo[d]oxazol-2-yl(4-(pyrazolo[1,5-a]pyridin-2-yl)-1,4,6,7-tetrahydro-5H-imidazo[4,5-c]pyridin-5-yl)methanone]",0.5 to 1
16,"O=C(c1nc2ccccc2o1)N1CCc2[nH]cnc2[C@@H]1c1cc2ccccn2n1 [Example 2049, (R)-benzo[d]oxazol-2-yl(4-(pyrazolo[1,5-a]pyridin-2-yl)-1,4,6,7-tetrahydro-5H-imidazo[4,5-c]pyridin-5-yl)methanone]",> 5
17,"O=C(c1nc2ccccc2o1)N1CCc2[nH]cnc2[C@@H]1c1cc2c(F)cccn2n1 [Example 2051, (R)-benzo[d]oxazol-2-yl(4-(4-fluoropyrazolo[1,5-a]pyridin-2-yl)-1,4,6,7-tetrahydro-5H-imidazo[4,5-c]pyridin-5-yl)methanone]",> 5
18,"O=C(c1nc2ccccc2o1)N1CCc2[nH]cnc2[C@H]1c1cc2c(C(F)F)cccn2n1 [Example 2052, (S)-benzo[d]oxazol-2-yl(4-(4-(difluoromethyl)pyrazolo[1,5-a]pyridin-2-yl)-1,4,6,7-tetrahydro-5H-imidazo[4,5-c]pyridin-5-yl)methanone]",0.5 to 1
19,"O=C(c1nc2ccccc2o1)N1CCc2[nH]cnc2[C@@H]1c1cc2c(C(F)F)cccn2n1 [Example 2053, (R)-benzo[d]oxazol-2-yl(4-(4-(difluoromethyl)pyrazolo[1,5-a]pyridin-2-yl)-1,4,6,7-tetrahydro-5H-imidazo[4,5-c]pyridin-5-yl)methanone]",> 5
20,"O=C(c1nc2ccccc2o1)N1CCc2[nH]cnc2[C@H]1c1cc2c(C(F)(F)F)cccn2n1 [Example 2054, (S)-benzo[d]oxazol-2-yl(4-(4-(trifluoromethyl)pyrazolo[1,5-a]pyridin-2-yl)-1,4,6,7-tetrahydro-5H-imidazo[4,5-c]pyridin-5-yl)methanone]",0.5 to 1
21,"O=C(c1nc2ccccc2o1)N1CCc2[nH]cnc2[C@@H]1c1cc2c(C(F)(F)F)cccn2n1 [Example 2055, (R)-benzo[d]oxazol-2-yl(4-(4-(trifluoromethyl)pyrazolo[1,5-a]pyridin-2-yl)-1,4,6,7-tetrahydro-5H-imidazo[4,5-c]pyridin-5-yl)methanone]",> 5
22,"FC(F)(F)c1nnc(N2CCc3[nH]cnc3[C@@H]2c2cc3c(C4CC4)cccn3n2)o1 [Example 2056, (R)-2-(4-(4-cyclopropylpyrazolo[1,5-a]pyridin-2-yl)-1,4,6,7-tetrahydro-5H-imidazo[4,5-c]pyridin-5-yl)-5-(trifluoromethyl)-1,3,4-oxadiazole]",> 5
23,"FC(F)(F)c1nnc(N2CCc3[nH]cnc3[C@H]2c2cc3c(C4CC4)cccn3n2)o1 [Example 2057, (S)-2-(4-(4-cyclopropylpyrazolo[1,5-a]pyridin-2-yl)-1,4,6,7-tetrahydro-5H-imidazo[4,5-c]pyridin-5-yl)-5-(trifluoromethyl)-1,3,4-oxadiazole]",< 0.5
24,"c1cc(C2CC2)c2cc([C@@H]3c4nc[nH]c4CCN3c3nnc(C4CC4)o3)nn2c1 [Example 2059, (S)-2-cyclopropyl-5-(4-(4-cyclopropylpyrazolo[1,5-a]pyridin-2-yl)-1,4,6,7-tetrahydro-5H-imidazo[4,5-c]pyridin-5-yl)-1,3,4-oxadiazole]",0.5 to 1
25,"CC(C)(F)c1nnc(C(=O)N2CCc3[nH]cnc3[C@H]2c2cc3c(C4CC4)cccn3n2)o1 [Example 2061, (S)-(4-(4-cyclopropylpyrazolo[1,5-a]pyridin-2-yl)-1,4,6,7-tetrahydro-5H-imidazo[4,5-c]pyridin-5-yl)(5-(2-fluoropropan-2-yl)-1,3,4-oxadiazol-2-yl)methanone]",0.5 to 1
26,"Fc1cccc(F)c1-c1nnc(N2CCc3[nH]cnc3[C@H]2c2cc3c(Cl)cccn3n2)o1 [Example 2063, (S)-2-(4-(4-chloropyrazolo[1,5-a]pyridin-2-yl)-1,4,6,7-tetrahydro-5H-imidazo[4,5-c]pyridin-5-yl)-5-(2,6-difluorophenyl)-1,3,4-oxadiazole]",< 0.5
27,"Cc1c(-c2ncc(C(=O)N3CCc4[nH]cnc4[C@H]3c3cc4c(F)cccn4n3)o2)cnn1C [Example 2066, (S)-(2-(1,5-dimethyl-1H-pyrazol-4-yl)oxazol-5-yl)(4-(4-fluoropyrazolo[1,5-a]pyridin-2-yl)-1,4,6,7-tetrahydro-5H-imidazo[4,5-c]pyridin-5-yl)methanone]",0.5 to 1
